This is an account of results in patent US20250171438A1 (Agios Pharmaceuticals, Inc., priority 2022, published 2025).

The target in this experiment is T1, human PAH with the R408W mutation (Homo sapiens, UniProt P00439, R408W).
T1 construct: expressed in transfected cells
T1 sequence (P00439 1-452 R408W): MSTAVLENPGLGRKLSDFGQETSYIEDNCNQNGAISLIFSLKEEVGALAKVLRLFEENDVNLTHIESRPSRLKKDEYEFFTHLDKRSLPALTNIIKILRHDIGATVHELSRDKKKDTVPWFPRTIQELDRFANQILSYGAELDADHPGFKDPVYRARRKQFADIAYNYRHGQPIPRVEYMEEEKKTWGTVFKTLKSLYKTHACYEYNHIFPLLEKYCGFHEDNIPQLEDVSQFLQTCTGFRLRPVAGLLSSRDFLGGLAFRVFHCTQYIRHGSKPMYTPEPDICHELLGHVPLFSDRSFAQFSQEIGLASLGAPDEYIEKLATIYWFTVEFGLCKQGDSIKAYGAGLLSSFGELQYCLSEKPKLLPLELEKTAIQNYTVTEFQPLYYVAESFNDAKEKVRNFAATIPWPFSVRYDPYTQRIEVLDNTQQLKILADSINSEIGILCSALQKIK
The experiment is described as follows: Cell Based Phenylalanine Flux Assay. Conditions: A375 cells expressing human R408W PAH; 24 hrs compound incubation; 13C-Tyrosine by LC-MS; average where tested multiple times; read-out: AC50.

For `Cn1nc(Br)nc1C(=O)N1CCc2[nH]cnc2[C@H]1c1nc2ccccc2s1` [Example 1977], the AC50 (as a rule, the concentration giving half of the maximal activity seen) lay within 1000 to 5000 nM. The same measure for `Cn1nc(Br)nc1C(=O)N1CCc2[nH]cnc2[C@@H]1c1nc2ccccc2s1` [Example 1978, (R)-(4-(benzo[d]thiazol-2-yl)-6,7-dihydro-1H-imidazo[4,5-c]pyridin-5(4H)-yl)(3-bromo-1-methyl-1H-1,2,4-triazol-5-yl)methanone]: 1000 to 5000 nM; for `C[C@@H](O)c1nc(C(F)F)c(C(=O)N2CCc3[nH]cnc3[C@@H]2c2nc3c(F)cccc3s2)o1` [Example 1979, (4-(difluoromethyl)-2-((R)-1-hydroxyethyl)oxazol-5-yl)((R)-4-(4-fluorobenzo[d]thiazol-2-yl)-6,7-dihydro-1H-imidazo[4,5-c]pyridin-5(4H)-yl)methanone]: 500 to 1000 nM; for `C[C@@H](O)c1nc(C(F)F)c(C(=O)N2CCc3[nH]cnc3[C@H]2c2nc3c(F)cccc3s2)o1` [Example 1980, (4-(difluoromethyl)-2-((R)-1-hydroxyethyl)oxazol-5-yl) ((S)-4-(4-fluorobenzo[d]thiazol-2-yl)-6,7-dihydro-1H-imidazo[4,5-c]pyridin-5(4H)-yl)methanone]: less than 500 nM. In the case of `O=C(c1cn(CC(F)F)nc1Cl)N1CCc2[nH]cnc2[C@H]1c1nc2c(F)cccc2s1` [Example 1981, (S)-(3-chloro-1-(2,2-difluoroethyl)-1H-pyrazol-4-yl)(4-(4-fluorobenzo[d]thiazol-2-yl)-6,7-dihydro-1H-imidazo[4,5-c]pyridin-5(4H)-yl)methanone], the AC50 is less than 500 nM. For the compound `O=C(c1cn(CC(F)F)nc1Cl)N1CCc2[nH]cnc2[C@@H]1c1nc2c(F)cccc2s1` [Example 1982, (R)-(3-chloro-1-(2,2-difluoroethyl)-1H-pyrazol-4-yl)(4-(4-fluorobenzo[d]thiazol-2-yl)-6,7-dihydro-1H-imidazo[4,5-c]pyridin-5(4H)-yl)methanone], the AC50 was 1000 to 5000 nM. With `O=C(c1cn(CC2CC2)nc1Cl)N1CCc2[nH]cnc2[C@H]1c1nc2c(F)cccc2s1` [Example 1983, (S)-(3-chloro-1-(cyclopropylmethyl)-1H-pyrazol-4-yl)(4-(4-fluorobenzo[d]thiazol-2-yl)-6,7-dihydro-1H-imidazo[4,5-c]pyridin-5(4H)-yl)methanone], the AC50 was less than 500 nM. Take `O=C(c1cn(CC2CC2)nc1Cl)N1CCc2[nH]cnc2[C@@H]1c1nc2c(F)cccc2s1` [Example 1984, (R)-(3-chloro-1-(cyclopropylmethyl)-1H-pyrazol-4-yl)(4-(4-fluorobenzo[d]thiazol-2-yl)-6,7-dihydro-1H-imidazo[4,5-c]pyridin-5(4H)-yl)methanone]: the AC50 is 1000 to 5000 nM. The same measure for `O=C(c1cn(CC(F)(F)F)nc1C(F)F)N1CCc2[nH]cnc2[C@H]1c1nc2ccccc2s1` [Example 1985]: less than 500 nM.

Regarding `O=C(c1cn(CC(F)(F)F)nc1C(F)F)N1CCc2[nH]cnc2[C@@H]1c1nc2ccccc2s1` [Example 1986, (R)-(4-(benzo[d]thiazol-2-yl)-6,7-dihydro-1H-imidazo[4,5-c]pyridin-5(4H)-yl)(3-(difluoromethyl)-1-(2,2,2-trifluoroethyl)-1H-pyrazol-4-yl)methanone], the AC50 lay within 1000 to 5000 nM. For `O=C(c1cn(CC(F)(F)F)nc1C(F)F)N1CCc2[nH]cnc2[C@H]1c1nc2c(F)cccc2s1` [Example 1987], the AC50 was less than 500 nM. Turning to `O=C(c1cn(CC(F)(F)F)nc1C(F)F)N1CCc2[nH]cnc2[C@@H]1c1nc2c(F)cccc2s1` [Example 1988, (R)-(3-(difluoromethyl)-1-(2,2,2-trifluoroethyl)-1H-pyrazol-4-yl)(4-(4-fluorobenzo[d]thiazol-2-yl)-6,7-dihydro-1H-imidazo[4,5-c]pyridin-5(4H)-yl)methanone], the AC50 is 1000 to 5000 nM.

On to `O=C(c1cnn(CC2CC(F)(F)C2)c1Cl)N1CCc2[nH]cnc2[C@H]1c1nc2c(F)cccc2s1` [Example 1989, (S)-(5-chloro-1-((3,3-difluorocyclobutyl)methyl)-1H-pyrazol-4-yl)(4-(4-fluorobenzo[d]thiazol-2-yl)-6,7-dihydro-1H-imidazo[4,5-c]pyridin-5(4H)-yl)methanone], for which the AC50 lay within 1000 to 5000 nM. Consider `O=C(c1cnn(CC2CC(F)(F)C2)c1Cl)N1CCc2[nH]cnc2[C@@H]1c1nc2c(F)cccc2s1` [Example 1990, (R)-(5-chloro-1-((3,3-difluorocyclobutyl)methyl)-1H-pyrazol-4-yl)(4-(4-fluorobenzo[d]thiazol-2-yl)-6,7-dihydro-1H-imidazo[4,5-c]pyridin-5(4H)-yl)methanone], for which the AC50 lay in the range of 1000 to 5000 nM.

On to `CC(=O)Cn1cc(C(=O)N2CCc3[nH]cnc3[C@H]2c2nc3c(F)cccc3s2)c(Cl)n1` [Example 1991, (S)-1-(3-chloro-4-(4-(4-fluorobenzo[d]thiazol-2-yl)-4,5,6,7-tetrahydro-1H-imidazo[4,5-c]pyridine-5-carbonyl)-1H-pyrazol-1-yl)propan-2-one], for which the AC50 was less than 500 nM.

`CC(=O)Cn1cc(C(=O)N2CCc3[nH]cnc3[C@@H]2c2nc3c(F)cccc3s2)c(Cl)n1` [Example 1992, (R)-1-(3-chloro-4-(4-(4-fluorobenzo[d]thiazol-2-yl)-4,5,6,7-tetrahydro-1H-imidazo[4,5-c]pyridine-5-carbonyl)-1H-pyrazol-1-yl)propan-2-one]: the AC50 is greater than 5000 nM.

For `CC(C)(O)Cn1cc(C(=O)N2CCc3[nH]cnc3[C@@H]2c2nc3c(F)cccc3s2)c(Cl)n1` [Example 1993, (R)-(3-chloro-1-(2-hydroxy-2-methylpropyl)-1H-pyrazol-4-yl)(4-(4-fluorobenzo[d]thiazol-2-yl)-6,7-dihydro-1H-imidazo[4,5-c]pyridin-5(4H)-yl)methanone], the AC50 fell in the range of 1000 to 5000 nM. `CC(C)(O)Cn1cc(C(=O)N2CCc3[nH]cnc3[C@H]2c2nc3c(F)cccc3s2)c(Cl)n1` [Example 1994]: the AC50 was in the range of 1000 to 5000 nM. Regarding `O=C(c1oc(C2(O)CC2)nc1C(F)F)N1CCc2[nH]cnc2[C@H]1c1nc2c(F)cccc2s1` [Example 1995], the AC50 was less than 500 nM.

On to `O=C(c1oc(C2(O)CC2)nc1C(F)F)N1CCc2[nH]cnc2[C@@H]1c1nc2c(F)cccc2s1` [Example 1996, (R)-(4-(difluoromethyl)-2-(1-hydroxycyclopropyl)oxazol-5-yl)(4-(4-fluorobenzo[d]thiazol-2-yl)-6,7-dihydro-1H-imidazo[4,5-c]pyridin-5(4H)-yl)methanone], for which the AC50 fell in the range of 1000 to 5000 nM. The same measure for `Cc1nc(C(C)(C)C#N)oc1C(=O)N1CCc2[nH]cnc2[C@@H]1c1nc2c(F)cccc2s1` [Example 1997, (R)-2-(5-(4-(4-fluorobenzo[d]thiazol-2-yl)-4,5,6,7-tetrahydro-1H-imidazo[4,5-c]pyridine-5-carbonyl)-4-methyloxazol-2-yl)-2-methylpropanenitrile]: 1000 to 5000 nM; for `Cc1nc(C(C)(C)C#N)oc1C(=O)N1CCc2[nH]cnc2[C@H]1c1nc2c(F)cccc2s1` [Example 1998, (S)-2-(5-(4-(4-fluorobenzo[d]thiazol-2-yl)-4,5,6,7-tetrahydro-1H-imidazo[4,5-c]pyridine-5-carbonyl)-4-methyloxazol-2-yl)-2-methylpropanenitrile]: less than 500 nM. As for `O=C(c1cnn(C2CC2)c1C(F)F)N1CCc2[nH]cnc2[C@H]1c1nc2c(F)cccc2s1` [Example 1999, (S)-(1-cyclopropyl-5-(difluoromethyl)-1H-pyrazol-4-yl)(4-(4-fluorobenzo[d]thiazol-2-yl)-6,7-dihydro-1H-imidazo[4,5-c]pyridin-5(4H)-yl)methanone], the AC50 lay in the range of 500 to 1000 nM. Take `O=C(c1cnn(C2CC2)c1C(F)F)N1CCc2[nH]cnc2[C@@H]1c1nc2c(F)cccc2s1` [Example 2000, (R)-(1-cyclopropyl-5-(difluoromethyl)-1H-pyrazol-4-yl)(4-(4-fluorobenzo[d]thiazol-2-yl)-6,7-dihydro-1H-imidazo[4,5-c]pyridin-5(4H)-yl)methanone]: the AC50 lay within 1000 to 5000 nM. The same measure for `CC(C)n1ncc(C(=O)N2CCc3[nH]cnc3[C@H]2c2nc3c(F)cccc3s2)c1C(F)F` [Example 2001, (S)-(5-(difluoromethyl)-1-isopropyl-1H-pyrazol-4-yl)(4-(4-fluorobenzo[d]thiazol-2-yl)-6,7-dihydro-1H-imidazo[4,5-c]pyridin-5(4H)-yl)methanone]: less than 500 nM.

Regarding `CC(C)n1ncc(C(=O)N2CCc3[nH]cnc3[C@@H]2c2nc3c(F)cccc3s2)c1C(F)F` [Example 2002, (R)-(5-(difluoromethyl)-1-isopropyl-1H-pyrazol-4-yl)(4-(4-fluorobenzo[d]thiazol-2-yl)-6,7-dihydro-1H-imidazo[4,5-c]pyridin-5(4H)-yl)methanone], the AC50 fell in the range of 1000 to 5000 nM. For the compound `O=C(c1cn(CC2CC(F)(F)C2)nc1Cl)N1CCc2[nH]cnc2[C@H]1c1nc2c(F)cccc2s1` [Example 2003, (S)-(3-chloro-1-((3,3-difluorocyclobutyl)methyl)-1H-pyrazol-4-yl)(4-(4-fluorobenzo[d]thiazol-2-yl)-6,7-dihydro-1H-imidazo[4,5-c]pyridin-5(4H)-yl)methanone], the AC50 was less than 500 nM. In the case of `O=C(c1cn(CC2CC(F)(F)C2)nc1Cl)N1CCc2[nH]cnc2[C@@H]1c1nc2c(F)cccc2s1` [Example 2004, (R)-(3-chloro-1-((3,3-difluorocyclobutyl)methyl)-1H-pyrazol-4-yl)(4-(4-fluorobenzo[d]thiazol-2-yl)-6,7-dihydro-1H-imidazo[4,5-c]pyridin-5(4H)-yl)methanone], the AC50 fell in the range of 1000 to 5000 nM.
